Results taken from patent US6737383B1, “Herbicidal oxadiazolidines” (priority 1999, dated 2004).

What was measured:
morningglory = experiment: Test B pre/postemergence morningglory; assay type: in vivo, Ipomoea hederacea
Procedure, shortened: (§1)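 Response is a visual 0-to-10 score relative to untreated plants, where 0 means no effect and 10 means complete control, taken twelve to sixteen days after application. Treatments went onto soil at planting and onto foliage of 1- to 4-leaf plants, using a surfactant-containing non-phytotoxic solvent.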

cocklebur = experiment: Test B pre/postemergence cocklebur; assay type: in vivo, Xanthium strumarium
Procedure, shortened: as §1

purple nutsedge = experiment: Test B pre/postemergence purple nutsedge; assay type: in vivo, Cyperus rotundus
Procedure, shortened: as §1

corn = experiment: Test B pre/postemergence corn; assay type: in vivo, Zea mays
Procedure, shortened: as §1

blackgrass = experiment: Test B pre/postemergence blackgrass; assay type: in vivo, Alopecurus myosuroides
Procedure, shortened: as §1

velvetleaf = experiment: Test B pre/postemergence velvetleaf; assay type: in vivo, Abutilon theophrasti
Procedure, shortened: as §1

crabgrass = experiment: Test B pre/postemergence crabgrass; assay type: in vivo, Digitaria sanguinalis
Procedure, shortened: as §1

giant foxtail = experiment: Test B pre/postemergence giant foxtail; assay type: in vivo, Setaria faberii
Procedure, shortened: as §1

wild oat = experiment: Test B pre/postemergence wild oat; assay type: in vivo, Avena fatua
Procedure, shortened: as §1

pigweed = experiment: Test B pre/postemergence pigweed; assay type: in vivo, Amaranthus retroflexus
Procedure, shortened: as §1

bedstraw = experiment: Test B pre/postemergence bedstraw; assay type: in vivo, Galium aparine
Procedure, shortened: as §1

wheat = experiment: Test B pre/postemergence wheat; assay type: in vivo, Triticum aestivum
Procedure, shortened: as §1

sugar beet = experiment: Test B pre/postemergence sugar beet; assay type: in vivo, Beta vulgaris
Procedure, shortened: as §1

soybean = experiment: Test B pre/postemergence soybean; assay type: in vivo, Glycine max
Procedure, shortened: as §1

rape = experiment: Test B pre/postemergence rape; assay type: in vivo, Brassica napus
Procedure, shortened: as §1

surinam grass = experiment: Test B pre/postemergence surinam grass; assay type: in vivo, Brachiaria decumbens
Procedure, shortened: as §1

[1] = Postemergence, Rate 62 g/ha, scale 0 to 10, 0 is no effect, 10 is complete control
[2] = Postemergence, Rate 125 g/ha, scale of 0 to 10 where 0 is no effect and 10 is complete control
[3] = Postemergence, Rate 500 g/ha, scale 0 (no effect) to 10 (complete control)
[4] = Rate 62 g/ha, Preemergence, scale 0 to 10
[5] = Rate 125 g/ha, Preemergence, scale 0 to 10 (0 no effect, 10 complete control)
[6] = Rate 250 g/ha, Postemergence, scale 0 to 10, 0 is no effect, 10 is complete control
[7] = Rate 500 g/ha, Preemergence, scale 0 to 10 (0 no effect, 10 complete control)
[8] = Preemergence, Rate 250 g/ha, scale 0 (no effect) to 10 (complete control)

CC(C)N(C(=O)n1oc(=O)n(CCCCCl)c1=O)c1ccccc1 [Compound 792]
8: Blackgrass plant response rating (blackgrass; [8])
6: Plant response rating, Morningglory (morningglory; [1]) | Velvetleaf plant response rating (velvetleaf; [6]) | Wild oats plant response rating (wild oat; [3]) | Redroot pigweed plant response rating (pigweed; [2]) | Redroot pigweed plant response rating (pigweed; [6])
7: Morningglory plant response rating (morningglory; [2]) | Blackgrass plant response rating (blackgrass; [2]) | Blackgrass plant response rating (blackgrass; [3]) | Velvetleaf plant response rating (velvetleaf; [3]) | Redroot pigweed plant response rating (pigweed; [4]) | Bedstraw plant response rating (bedstraw; [2]) | Soybean plant response rating (soybean; [3]) | Rape plant response rating (rape; [3]) | Rape plant response rating (rape; [6])
4: Corn plant response rating (corn; [8]) | Corn plant response rating (corn; [7]) | Plant response rating, Blackgrass (blackgrass; [1]) | Blackgrass plant response rating (blackgrass; [5]) | Bedstraw plant response rating (bedstraw; [8]) | Plant response rating, Soybean (soybean; [1])
2: Corn plant response rating (corn; [5]) | Corn plant response rating (corn; [6]) | Plant response rating, Crabgrass (crabgrass; [1]) | Plant response rating, Giant foxtail (giant foxtail; [1]) | Wild oats plant response rating (wild oat; [6]) | Sugarbeets plant response rating (sugar beet; [3]) | Sugarbeets plant response rating (sugar beet; [6]) | B. signalgrass plant response rating (surinam grass; Rate 500 g/ha, Postemergence, scale 0 to 10, 0 is no effect, 10 is complete control)
5: Velvetleaf plant response rating (velvetleaf; [7]) | Soybean plant response rating (soybean; [6])
10: Morningglory plant response rating (morningglory; [3]) | Morningglory plant response rating (morningglory; [6]) | Crabgrass plant response rating (crabgrass; [8]) | Crabgrass plant response rating (crabgrass; [4]) | Crabgrass plant response rating (crabgrass; [5]) | Crabgrass plant response rating (crabgrass; [7]) | Giant foxtail plant response rating (giant foxtail; [8]) | Giant foxtail plant response rating (giant foxtail; [4]) | Giant foxtail plant response rating (giant foxtail; [5]) | Giant foxtail plant response rating (giant foxtail; [7])
0: Morningglory plant response rating (morningglory; [4]) | Morningglory plant response rating (morningglory; [5]) | Morningglory plant response rating (morningglory; [7]) | Plant response rating, Cocklebur (cocklebur; [1]) | Cocklebur plant response rating (cocklebur; [8]) | Cocklebur plant response rating (cocklebur; [4]) | Cocklebur plant response rating (cocklebur; [7]) | Plant response rating, Nutsedge (purple nutsedge; [1]) | Nutsedge plant response rating (purple nutsedge; [2]) | Nutsedge plant response rating (purple nutsedge; [3]) | Nutsedge plant response rating (purple nutsedge; [4]) | Nutsedge plant response rating (purple nutsedge; [5]) | Nutsedge plant response rating (purple nutsedge; [6]) | Nutsedge plant response rating (purple nutsedge; [7]) | Plant response rating, Corn (corn; [1]) | Corn plant response rating (corn; [4]) | Plant response rating, Velvetleaf (velvetleaf; [1]) | Velvetleaf plant response rating (velvetleaf; [4]) | Plant response rating, Wild oats (wild oat; [1]) | Wild oats plant response rating (wild oat; [4]) | Wild oats plant response rating (wild oat; [5]) | Plant response rating, Redroot pigweed (pigweed; [1]) | Bedstraw plant response rating (bedstraw; [4]) | Bedstraw plant response rating (bedstraw; [5]) | Plant response rating, Wheat (wheat; [1]) | Wheat plant response rating (wheat; [4]) | Wheat plant response rating (wheat; [5]) | Plant response rating, Sugarbeets (sugar beet; [1]) | Sugarbeets plant response rating (sugar beet; [4]) | Soybean plant response rating (soybean; [4]) | Soybean plant response rating (soybean; [5]) | Soybean plant response rating (soybean; [7]) | Rape plant response rating (rape; [4]) | Rape plant response rating (rape; [5]) | Plant response rating, B. signalgrass (surinam grass; [1]) | B. signalgrass plant response rating (surinam grass; [2]) | B. signalgrass plant response rating (surinam grass; Rate 62 g/ha, Preemergence, scale 0 (no effect) to 10 (complete control)) | B. signalgrass plant response rating (surinam grass; [5]) | B. signalgrass plant response rating (surinam grass; [6])
9: Crabgrass plant response rating (crabgrass; [2]) | Crabgrass plant response rating (crabgrass; [3]) | Giant foxtail plant response rating (giant foxtail; [2]) | Giant foxtail plant response rating (giant foxtail; [3]) | Giant foxtail plant response rating (giant foxtail; [6]) | Redroot pigweed plant response rating (pigweed; [5]) | B. signalgrass plant response rating (surinam grass; [8])
3: Cocklebur plant response rating (cocklebur; [3]) | Cocklebur plant response rating (cocklebur; [6]) | Corn plant response rating (corn; [3]) | Velvetleaf plant response rating (velvetleaf; [5]) | Wheat plant response rating (wheat; [3]) | Sugarbeets plant response rating (sugar beet; [5]) | Plant response rating, Rape (rape; [1]) | Rape plant response rating (rape; [2])
1: Cocklebur plant response rating (cocklebur; [2]) | Corn plant response rating (corn; [2]) | Blackgrass plant response rating (blackgrass; [4]) | Wheat plant response rating (wheat; [6])
